Assay results as given in patent US10150793B2, “Antagonists of CB1 receptor” (INSERM (Institut National de la Santé et de la Recherche …, priority 2011, dated 2018).

System: CHO cells
Test: Study of metabolism in vitro in CHO cells, steroids in culture medium by GC/MS
Details: CHO cells
Experimental: Plasma, brain and culture medium levels of pregnenolone (5-Pregnen-3β-ol-20-one), allopregnanolone (3α-hydroxy-5α-pregnan-20-one), epiallopregnanolone (3β-hydroxy-5α-pregnan-ol-20-one), testosterone, and 5α dihydrotestosterone were determined by GC/MS according to the of estraction, purification and quantification protocol described previously (George O, et al., Biol Psychiatry. 2010 68: 956-63, Vallee M, et al., Anal Biochem. 2000, 287:153-66).
The CHO-K1 cell line (#CCL-61, ATCC-LGC, USA) derived as a subclone from the parental CHO cell line initiated from a biopsy of an adult Chinese hamster ovary was used. The CHO-K1 cells were seeded on 24-well plates (#353047, BD Biosciences, USA) to the appropriate concentration (25×10^4 cells/well) in fresh, antibiotic-free medium constituted by 90% DMEM-Glutamax; (#31966-21, Life technologies, USA) and 10% Fetal Bovine Serum (#10270-106, Life technologies, USA).
In this example the inventors further analyzed the metabolism of pregnenolone derivatives using an in vitro test in CHO cells. These cells derived from the ovary have all the enzymes needed to metabolize pregnenolone in down stream steroids.

| Structure (SMILES) | metabolism in downstream active steroids (Reduced metabolism / Metabolized) |
| --- | --- |
| CCC1=CC[C@H]2[C@@H]3CC=C4C[C@@H](O)CC[C@]4(C)[C@H]3CC[C@]12C [Compound 6, 5,16-Pregnadien-3β-ol] | Metabolized |
| CC(=O)C1=CCC2C3CC=C4C[C@@H](O)CC[C@]4(C)C3CC[C@]12C (stereo partly drawn) [Compound 7, 5,16-Pregnadien-3β-ol-20-one] | Metabolized |
| C[C@@H](O)[C@H]1CCC2C3CC[C@H]4C[C@@H](O)CC[C@]4(C)C3CC[C@@]21C (stereo partly drawn) [Compound 8, 5α-Pregnan-3β,20α-diol] | Metabolized |
| CC(=O)C1CCC2C3CC[C@H]4C[C@@H](OC(=O)CCC(=O)O)CC[C@]4(C)C3CC[C@]12C (stereo partly drawn) [Compound 10, 5α-Pregnan-3α-ol-20-one hemisuccinate (Allopregnanolone hemisuccinate)] | Metabolized |
| CC(=O)[C@H]1CCC2C3CC[C@H]4C[C@@H](O)CC[C@]4(C)C3CC[C@@]21C (stereo partly drawn) [Compound 11, 5α-Pregnan-3β-ol-20-one (Epiallopregnanolone)] | Metabolized |
| C[C@@H](O)[C@H]1CCC2C3CCC4=C[C@@H](O)CC[C@]4(C)C3CC[C@@]21C (stereo partly drawn) [Compound 13, 4-Pregnen-3β,20β-diol] | Metabolized |
| C[C@@H](O)[C@@]1(O)CCC2C3CCC4=CC(=O)CC[C@]4(C)C3CC[C@@]21C (stereo partly drawn) [Compound 15, 4-Pregnen-17α,20β-diol-3-one] | Metabolized |
| CC(=O)[C@H]1CCC2C3CCC4=C[C@@H](O)CC[C@]4(C)C3CC[C@@]21C (stereo partly drawn) [Compound 17, 4-Pregnen-3β-ol-20-one] | Metabolized |
| C[C@@H](O)[C@H]1CCC2C3CCC4=CC(=O)CC[C@]4(C)C3CC[C@@]21C (stereo partly drawn) [Compound 19, 4-Pregnen-20β-ol-3-one] | Metabolized |
| C[C@@H](O)[C@H]1CCC2C3CC=C4C[C@@H](O)CC[C@]4(C)C3CC[C@@]21C (stereo partly drawn) [Compound 21, 5-Pregnen-3β,20β-diol] | Metabolized |
| CC(=O)[C@]1(O)CCC2C3CC=C4C[C@@H](O)CC[C@]4(C)C3CC[C@@]21C (stereo partly drawn) [Compound 22, 17α-Hydroxypregnenolone] | Metabolized |
| CC(=O)[C@]1(O)CCC2C3CC=C4C[C@@H](OC(=O)CCC(=O)O)CC[C@]4(C)C3CC[C@@]21C (stereo partly drawn) [Compound 23, 17α-Hydroxypregnenolone hemisuccinate] | Metabolized |
| CC[C@H]1CCC2C3CC=C4C[C@@H](O)CC[C@]4(C)C3CC[C@@]21C (some centres unmarked) [Compound 24, 20-Deoxypregnenolone] | Reduced metabolism |
| C[C@]12CC[C@H](O)CC1=CCC1C2CC[C@@]2(C)C1CC[C@@H]2C(=O)CO (stereo partly drawn) [Compound 26, 5-Pregnen-3β,21-diol-20-one] | Metabolized |
| CO[C@H]1CC[C@@]2(C)C(=CCC3C2CC[C@@]2(C)C3CC[C@@H]2C(C)=O)C1 (stereo partly drawn) [Compound 33, 3β-Methoxypregnenolone] | Metabolized |
| CCO[C@H]1CC[C@@]2(C)C(=CCC3C2CC[C@@]2(C)C3CC[C@@H]2C(C)=O)C1 (stereo partly drawn) [Compound 34, 3β-Ethoxypregnenolone] | Metabolized |
| CC(=O)[C@H]1CCC2C3CC=C4CCCC[C@]4(C)C3CC[C@@]21C (some centres unmarked) [Compound 37, 3-Dehydroxypregnenolone] | Metabolized |

| Structure (SMILES) | metabolism in downstream active steroids (Reduced metabolism / Metabolized) |
| --- | --- |
| CC(O)C1=CC[C@H]2[C@@H]3CC=C4C[C@@H](O)CC[C@]4(C)[C@H]3CC[C@]12C (stereo partly drawn) [Compound 38, 5,16-Pregnadien-3β,20-diol] | Metabolized |
| CC(=O)[C@@]1(C)CCC2C3CC=C4C[C@@H](OCc5ccccc5)CC[C@]4(C)C3CC[C@@]21C (stereo partly drawn) [Compound 42, 3β-Benzyloxy-17α-methylpregnenolone] | Reduced metabolism |
| C[C@]12CC[C@H](O)CC1=CCC1C2CC[C@]2(C)C(=O)CCC12 (stereo partly drawn) [Compound 50, 5-Androsten-3β-ol-17-one (DHEA), reference compound] | Metabolized |
| C[C@]12CC[C@H]3[C@@H](CCC4=CC(=O)CC[C@@]43C)[C@@H]1CC[C@@H]2C(=O)CO [Compound 52, 4-Pregnen-21-ol-3,20-dione] | Metabolized |
| CC(=O)[C@H]1CC[C@H]2[C@@H]3CC=C4C[C@@H](OS(=O)(=O)[O-])CC[C@]4(C)[C@H]3CC[C@]12C.[Na+] [Compound 53, Pregnenolone sulfate sodium] | Metabolized |
| CC(=O)O[C@H]1CC[C@@]2(C)C(=CCC3C2CC[C@@]2(C)C3CC[C@@H]2C(C)=O)C1 (stereo partly drawn) [Compound 55, 3β-Acetoxypregnenolone] | Metabolized |
| CC(=O)[C@@]1(Cc2ccccc2)CCC2C3CC=C4C[C@@H](OCc5ccccc5)CC[C@]4(C)C3CC[C@@]21C (stereo partly drawn) [Compound 63, 17α-Benzyl-3β-benzyloxypregnenolone] | Reduced metabolism |
| C=CC[C@]1(C(C)=O)CCC2C3CC=C4C[C@@H](O)CC[C@]4(C)C3CC[C@@]21C (stereo partly drawn) [Compound 64, 17α-Allylpregnenolone] | Metabolized |
| CC(=O)C1CCC2C3CC=C4C[C@@H](N)CC[C@]4(C)C3CC[C@]12C (stereo partly drawn) [Compound 66, 3β-Aminopregnenolone] | Metabolized |
| CNC(C)[C@H]1CC[C@H]2[C@@H]3CC=C4C[C@@H](O)CC[C@]4(C)[C@H]3CC[C@]12C (stereo partly drawn) [Compound 67, 20-Methylamino-5-pregnen-3β-ol] | Reduced metabolism |
| C=CC[C@]1(C(C)=O)CCC2C3CC=C4C[C@@H](OC)CC[C@]4(C)C3CC[C@@]21C (stereo partly drawn) [Compound 69, 17α-Allyl-3β-methoxypregnenolone] | Reduced metabolism |
| CO[C@H]1CC[C@@]2(C)C(=CCC3C2CC[C@@]2(C)C3CC[C@]2(Cc2ccccc2)C(C)=O)C1 (stereo partly drawn) [Compound 70, 17α-benzyl-3β-methoxypregnenolone] | Reduced metabolism |
| CCOC1(C(C)=O)CCC2C3CC=C4C[C@@H](O)CC[C@]4(C)C3CC[C@@]21C (some centres unmarked) [Compound 71, 17-Ethoxypregnenolone] | Metabolized |
| CC(=O)[C@@]1(Cc2ccccc2)CCC2C3CCC4=CC(=O)CC[C@]4(C)C3CC[C@@]21C (stereo partly drawn) [Compound 73, 17α-Benzylprogesterone] | Reduced metabolism |
| CC(=O)[C@@]1(Cc2ccccc2)CCC2C3CC=C4C[C@@H](F)CC[C@]4(C)C3CC[C@@]21C (stereo partly drawn) [Compound 74, 17α-Benzyl-3β-fluoropregnenolone] | Reduced metabolism |
| C[C@]12CCC3C(CC[C@@H]4C[C@@H](O)CC[C@]34C)C1CC[C@@H]2C(=O)CO (stereo partly drawn) [Compound 75, 5α-Pregnan-3α,21-diol-20-one] | Metabolized |
| C[C@]12CCC3C(CC[C@H]4C[C@@H](O)CC[C@]34C)C1CC[C@@H]2C(=O)CO (stereo partly drawn) [Compound 76, 5α-Pregnan 3β,21-diol-20-one] | Metabolized |

System: TNF-α
Test: Increase in plasma TNF-alpha induced by LPS
Format: in vivo, mice
Details: Mus musculus; mice; compounds 6 mg/kg 15 min before LPS
Experimental: Trunk blood was collected and centrifuged at 3000 rpm for 15 min at 4° C. Plasma was stored at −80° C. until measurement of TNFα was carried out. Plasma TNFα levels were assessed using an ELISA kit, following the manufacturer's instructions (Fisher Scientific, Catalog #E6473C).
In this example the inventors further analyzed the ability of pregnenolone to inhibit the effects of CB1 activation in the context of inflammation and fibrosis. […] TNF-alpha is one of the cellular responses to inflammatory stimuli more involved in promoting fibrosis.
Other pregnenolone derivatives (Table 4) for which the metabolism in downstream active steroids was reduced were tested for their ability to inhibit: 1. effects of the THC-induced cannabinoid tetrade (decrease in body temperature and in locomotor activity, (THC 10 mg/kg, compounds 6 mg/kg 15-30 min before THC) that is recognized as a sound method to evaluate the activation of the CB1 receptor; 2. THC-induced increase in food intake a typical effect of CB1 activation (THC between 0.5 and 1 mg/kg, compounds between 2 and 4 mg/kg 30 min before THC); 3. the increase in TNFalpha induced by LPS, another effects typical of CB1 […] (compounds 6 mg/kg 15 min before LPS). For each compound and each test independent groups of animals were used (at least n=6 per compound/per test).

| Structure (SMILES) | inhibition in vivo at 6 mg/kg |
| --- | --- |
| CC[C@H]1CCC2C3CC=C4C[C@@H](O)CC[C@]4(C)C3CC[C@@]21C (some centres unmarked) [Compound 24, 20-Deoxypregnenolone] | 34% |

Biological target: CB1 receptor (Mus musculus, UniProt P47746)
Sequence (P47746 whole entry): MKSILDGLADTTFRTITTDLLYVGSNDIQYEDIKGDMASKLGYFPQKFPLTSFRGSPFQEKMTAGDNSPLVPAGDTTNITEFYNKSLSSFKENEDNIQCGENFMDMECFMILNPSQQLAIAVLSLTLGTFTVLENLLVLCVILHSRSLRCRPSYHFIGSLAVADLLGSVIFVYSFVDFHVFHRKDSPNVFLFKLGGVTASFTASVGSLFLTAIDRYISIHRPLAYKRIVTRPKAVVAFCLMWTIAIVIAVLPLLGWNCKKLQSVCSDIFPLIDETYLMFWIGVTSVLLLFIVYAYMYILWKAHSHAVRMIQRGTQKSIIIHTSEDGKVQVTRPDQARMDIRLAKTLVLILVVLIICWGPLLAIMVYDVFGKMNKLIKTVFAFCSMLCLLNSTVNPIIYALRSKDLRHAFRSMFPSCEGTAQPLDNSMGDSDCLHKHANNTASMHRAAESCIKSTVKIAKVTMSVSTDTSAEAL
Test: THC-induced cannabinoid tetrad (body temperature, locomotor activity, catalepsy, analgesia)
Format: in vivo, mice
Set-up: tissue Charles River Laboratories (France) (animals); host or cells: living mice, whole animal
Details: AMG 50 mg/kg ip 30 min before THC

| Structure (SMILES) | effect on behavioural effects of THC (tetrad) |
| --- | --- |
| CCC1(c2ccc(N)cc2)CCC(=O)NC1=O (centres unmarked) [AMG, aminoglutethimide, reference compound] | strongly increased all the behavioural effect of THC |

Same assay, conditions: mice; THC 10 mg/kg; compounds 6 mg/kg 15-30 min before THC

| Structure (SMILES) | % Inhibition temperature decrease | % increase in motor activity |
| --- | --- | --- |
| CC[C@H]1CCC2C3CC=C4C[C@@H](O)CC[C@]4(C)C3CC[C@@]21C (some centres unmarked) [Compound 24, 20-Deoxypregnenolone] | 25%, P < 0.08 | 33%, P > 0.20 |
| CNC(C)[C@H]1CC[C@H]2[C@@H]3CC=C4C[C@@H](O)CC[C@]4(C)[C@H]3CC[C@]12C (stereo partly drawn) [Compound 67, 20-Methylamino-5-pregnen-3β-ol] | 28%, P < 0.05 | −20%, P > 0.35 |
| C=CC[C@]1(C(C)=O)CCC2C3CC=C4C[C@@H](OC)CC[C@]4(C)C3CC[C@@]21C (stereo partly drawn) [Compound 69, 17α-Allyl-3β-methoxypregnenolone] | 4%, P > 0.39 | −49%, P > 0.1 |
| CO[C@H]1CC[C@@]2(C)C(=CCC3C2CC[C@@]2(C)C3CC[C@]2(Cc2ccccc2)C(C)=O)C1 (stereo partly drawn) [Compound 70, 17α-benzyl-3β-methoxypregnenolone] | 8%, P > 0.49 | 2%, P > 0.48 |
